Test results taken from US6303596A, “Use of taurolidine for treatment of leukemias” (priority 2000, dated 2001).
Several values for one entry are separate records, joined by “and”; a condition that tells them apart may be missing. Identical values can stand only once.

Experiments:
[1] = test system: GM5387; assay: TUNEL / propidium iodide flow cytometry, GM5387; format: cell-based, human; conditions: GM5387; taurolidine 100 μg/ml or anisomycin 1 μg/ml for 4 h, assayed at 6 hours; mean ± SD
Experimental: (§1) In the second method, DNA fragmentation was detected via TUNEL assay according to the manufacturer's instructions. With this methodology, 2×10^6 cells were fixed with 2% paraformaldehyde, permeabilized with 0.1% Triton X-100/0.1% citrate, incubated at 37° C. with terminal deoxynucleotidyl transferase and FITC-dUTP, rinsed and analyzed by flow cytometry. Enhanced FITC signal indicates apoptosis-specific DNA fragmentation. Gavriali, et al, "Identification of programmed cell death in situ via specific labeling of nuclear DNA fragmentation," J Cell Biol 119:493 (1992). Parallel aliquots of unfixed cells were treated with PI and FITC-conjugated anti-CD14 and analyzed by flow cytometry, in order to identify cells with permeable cell membranes (since PI binds to DNA but is excluded from cells with intact plasma membranes) and also to determine the cell-specificity of the apoptotic signal.
(§2) In another study, TUNEL assays were performed on all cell lines 6 hours after cells were initially exposed to taurolidine (cells were treated for 4 hours, rinsed, and then incubated for 2 more hours before TUNEL assay was performed).
(§3) . Taurolidine and anisomycin induced apoptosis in MM6, HL-60, and Jurkat cells (Table VIII). MM6 and HL-60 cells were similarly effected, with >80% TUNEL-positive cells after 6 hours. […]
(§4) Data are percent of total cell-size events, and are expressed as mean ± […]

[2] = test system: K562; assay: TUNEL / propidium iodide flow cytometry, K562; format: cell-based, human; conditions: taurolidine 100 μg/ml or anisomycin 1 μg/ml for 4 h, mean ± SD
Experimental: as §1, §2
(§5) . Taurolidine and anisomycin induced apoptosis in MM6, HL-60, and Jurkat cells (Table VIII). MM6 and HL-60 cells were similarly effected, with >80% TUNEL-positive cells after 6 hours. Jurkat cells were less sensitive, with approximately 50% of cells induced to undergo apoptosis after taurolidine treatment. After 6 hours, 73% of anisomycin-treated REH cells were apoptotic, with less than 20% of taurolidine-treated REH cells being TUNEL-positive. However, assay of cells 24 hours after
(§6) ^a Analysis by flow cytometry after staining cells with propidium
(§7) iodide and processing for TUNEL.
(§8) Data are percent of total cell-size events, and are expressed as mean ±
(§9) Cells were treated for 4 hours with taurolidine (100 μg/ml) or
(§10) anisomycin (1 μg/ml), and then assayed at 6 hours.
(§11) Data are percent of total cell-sized events, and are expressed as mean ±
(§12) anisomycin (1 μg/ml), and then assayed at 24 hours.

[3] = test system: REH; assay: TUNEL / propidium iodide flow cytometry, REH; format: cell-based, human; conditions: taurolidine 100 μg/ml or anisomycin 1 μg/ml for 4 h, mean ± SD
Experimental: as §1, §2, §5, §6, §7, §8, §9, §10, §11, §12

[4] = test system: ECV304; assay: TUNEL / propidium iodide flow cytometry, ECV304; format: cell-based, human; conditions: ECV304; taurolidine 100 μg/ml or anisomycin 1 μg/ml for 4 h, assayed at 6 hours; mean ± SD
Experimental: as §1, §2, §3, §4

[5] = test system: HL-60; assay: TUNEL / propidium iodide flow cytometry, HL-60; format: cell-based, human; conditions: HL-60; taurolidine 100 μg/ml or anisomycin 1 μg/ml for 4 h, assayed at 6 hours; mean ± SD
Experimental: as §1
(§13) Consequently, TUNEL analysis was performed on PBMC at 3, 6, or 24 hours after treatment with 25 to 100 μg/ml taurolidine. Aliquots of harvested cells were also labeled with FITC-conjugated anti-CD14 antibodies and PI, which allowed identification of monocytes (CD14-positive cells) and cells with damaged cell membranes (PI-positive cells). […] Thus, nearly 75% of the monocytes were TUNEL-positive following treatment with 100 μg/ml taurolidine for six hours. Confirmation that the TUNEL-positive cells were monocytes was obtained by staining with FITC-conjugated anti-CD14.
as §2, §5, §6, §7, §8, §9, §10

[6] = test system: Lymphocytes; assay: tissue or blood; format: cell-based, human; conditions: whole blood
Experimental: (§14) FIGS. 15A, 15B, and 15C depict TUNEL analysis of PBMC treated with taurolidine in whole blood, for control cells, taurolidine-treated cells, and anisomycin-treated cells, respectively . Cells were incubated with 500 μg/ml taurolidine for 4 hours, resuspended in fresh medium, incubated for two hours further and processed for TUNEL analysis. Parallel samples were stained with FITC-conjugated anti-CD14 and PI as described herein. Ten thousand events were recorded per sample. TUNEL signal (x -axis) is a measure of DNA fragmentation, while FSC (y-axis) is related to cell size. TUNEL-negative lymphocytes are bounded by rectangle R 1, while TUNEL-negative monocytes (CD 14 positive cells) are bounded by rectangle R2. R3 bounds the TUNEL-positive population of cells. There were minimal numbers of PI-positive cells in 6 hour samples (see Table VI).
as §1
(§15) Taurolidine at 100 μg/ml induced apoptosis of approximately 75% of purified peripheral blood monocytes when these cells were incubated in culture medium. However, in order to more closely mimic the milieu of leukocytes in vivo, induction of apoptosis in PBMC by taurolidine was studied in whole blood (anticoagulated with heparin). As before, apoptosis was quantitated by measuring the loss of monocytes from a TUTNEL-negative (no DNA fragmentation), CD 14 positive population of cells which was concomitant with the appearance of a TUNEL-positive population of cells. Treatment of PBMC in whole blood resulted
(§16) in a shift of the taurolidine dose-response curve. […] As a positive control for induction of apoptosis, some cells were treated with anisomycin, a protein synthesis inhibitor known to induce apoptosis in monocytes.
(§17) ^a Analysis by flow cytometry after staining cells with PI and
(§18) processing for TUNEL. Data are mean ± SD of 2 experiments.
(§19) ^b Percent of cells present in the TUNEL-negative region in control

[7] = test system: Monocytes; assay: tissue or blood; format: cell-based, human
Experimental: as §14, §1, §15, §16, §17, §18, §19

[8] = test system: MM6; assay: TUNEL / propidium iodide flow cytometry, MM6; format: cell-based, human; conditions: MM6; taurolidine 100 μg/ml or anisomycin 1 μg/ml for 4 h, assayed at 6 hours; mean ± SD
Experimental: as §1, §13, §2, §5, §6, §7, §8, §9, §10

[9] = test system: Jurkat; assay: TUNEL / propidium iodide flow cytometry, Jurkat; format: cell-based, human; conditions: taurolidine 100 μg/ml or anisomycin 1 μg/ml for 4 h, assayed at 6 hours, mean ± SD
Experimental: as §1, §2, §3, §4

[10] = test system: TNFα; assay: LPS-induced TNFα expression/secretion by MM6 cells, ELISA; format: cell-based, human; conditions: MM6, taurine 44 μg/ml
Experimental: FIG. 3A and FIG. 3B are graphs depicting taurolidine inhibition of LPS-induced alpha […] (TNFα) expression by monocytic cells as determined by assay procedures. FIG. 3A represents MM6 cells; FIG. 3B represents PBMC. The cells were induced with LPS (hatched bars: 100 ng/ml LPS in RPMI+10% BCS; solid bars: 10 ng/ml in AIM-V+0.01% BCS) in the presence of varying concentrations of taurolidine. After four hours, cell supernatants were collected for TNFα ELISA. Data are expressed as percent of TNFα levels measured in cell cultures treated with LPS alone (no taurolidine or vehicle). Experiments were performed with duplicate samples and were repeated at least three times. Values shown in FIG. 3A are from a representative experiment. Values shown in FIG. 3B are mean±SEM of three experiments.
(§20) All cells were cultured in a 5% CO2 atmosphere at 37° C. MM6 cells were grown in RPMI supplemented with 10% BCS, 2 mM L-glutamine, and 50 μg/ml gentamicin (RPMI+10% BCS). In some experiments, MM6 cells were rinsed once with HBSS without Ca^++ or Mg^++ and once with AIM-V before finally being resuspended in AIM-V supplemented with 0.01% BCS (AIM-V+0.01% BCS). […] AIM-V was supplemented with a low amount of BCS (0.01%) in order to provide a source of LPS-binding protein, which enhances the response of monocytic cells to LPS. Ulevitch, R. J. and Tobias, P. S., "Recognition of endotoxin by cells leading to transmembrne signaling," Curr Opin Immunol 6:125 (1994). HL-60, REH, and Jurkat were cultured in RPMI supplemented with 10% heat inactivated fetal bovine serum (FBS), 2 mM L-glutamine, and 50 μg/ml gentamicin. ECV304 were cultured in M199 supplemented with 10% FBS, mM L-glutamine, and 50 μg/ml gentamicin. GM5387 was cultured in MEM supplemented with 20% FBS, 2 mM L-glutamine, and 50 μg/ml gentamicin.
For induction of TF or TNFα expression, MM6 cells or PBMC were cultured either in RPMI supplemented with 10% BCS or in AIM-V+0.01% BCS, and stimulated by adding LPS to final concentrations of 10 to 100 ng/ml. […]

[11] = test system: tissue factor (TF); assay: LPS-induced tissue factor (TF) expression in MM6 cells, ELISA; format: cell-based, human; conditions: MM6, taurine up to 0.5 mg/ml
Experimental: FIG. 2A represents MM6 cells; FIG. 2B represents PBMC. The cells were induced with LPS (hatched bars: 100 ng/ml LPS in RPMI supplemented with 10% BCS (RPMI+10% BCS); solid bars: 10 ng/ml in AIM-V+0.01% BCS) in the presence of varying concentrations of taurolidine,or with a dilution of the vehicle equivalent to that given to cells receiving 100 μg/ml taurolidine. After four hours, cells were collected and lysates were prepared for TF ELISA. Data are expressed as percent of TF antigen measured in cells treated with LPS alone (no taurolidine or vehicle). Experiments were performed with duplicate samples and were repeated at least three times. Values shown are mean±SEM of all experiments.
as §20, with “Ulevitch, R. J. and Tobias, P. S., "Recognition of endotoxin by cells leading to transmembrne signaling," Curr Opin Immunol 6:125 (1994).” left out
For induction of TF or TNFα expression, MM6 cells or PBMC were cultured either in RPMI supplemented with 10% BCS or in AIM-V+0.01% BCS, and stimulated by adding LPS to final concentrations of 10 to 100 ng/ml. […] Except as noted, taurolidine and LPS were added to the cell cultures simultaneously. For TF determination, cells and culture media together were treated by adding Triton X-100 (1% final) and EDTA (7 mmol/L final), and the resulting lysates assayed by ELISA. […] For TNFα determination, cells were removed by centrifugation for 5 min at 250×g, and the supernatants were assayed by ELISA.

[12] = test system: human blood monocytes; conditions: cited from earlier work

COc1ccc(C[C@H]2NC[C@H](O)[C@H]2OC(C)=O)cc1 [anisomycin]
% propidium iodide positive [1]: 5.4 ± 3.2% | % propidium iodide positive ([2]; assayed at 6 hours): 4.8 ± 3.1% | % TUNEL-positive ([2]; assayed at 24 hours): 2.2 ± 6.2% | % propidium iodide ([2]; assayed at 24 hours): 7.1 ± 2.3% | % TUNEL-positive ([2]; assayed at 24 hours, listed as Anisomycin): less than 10% | % TUNEL-positive ([3]; assayed at 6 hours): 73% and 72.9 ± 7.4% | % propidium iodide positive ([3]; assayed at 6 hours): 18.4 ± 0.5% | % TUNEL-positive ([3]; assayed at 24 hours): 53.0 ± 2.6% | % propidium iodide ([3]; assayed at 24 hours): 51.6 ± 17.0% | % propidium iodide positive [4]: 2.2 ± 3.1% | % TUNEL-positive [5]: > 80% and 96.1 ± 6.8% | % propidium iodide positive [5]: 28.3 ± 15.3% | induction of apoptosis in lymphocytes [6]: no evidence for a significant effect | TUNEL-negative monocytes after anisomycin ([7]; PBMC in whole blood): loss of TUNEL-negative monocytes | TUNEL-positive cells after anisomycin ([7]; whole blood, 6 hour incubation, versus taurolidine): fewer TUNEL-positive cells | % TUNEL-positive [8]: > 80% and 92.0 ± 2.3% | % propidium iodide positive [8]: 19.1 ± 5.4% | % TUNEL-positive [9]: 69.6 ± 19.8% | % propidium iodide positive [9]: 5.1 ± 3.4%

NCCS(=O)(=O)O [taurine]
effect on TNFα expression [10]: no effect on TNFα expression | effect on TF expression [11]: no effect on TF expression

B1: IL-4: anti-inflammatory cytokine IL-4 (protein, UniProt P05112 25-153, looked up)
Interleukin-4: HKCDITLQEIIKTLNSLTEQKTLCTELTVTDIFAASKNTTEKETFCRAATVLRQFYSHHEKDTRCLGATAQQFHRHKQLIRFLKRLDRNLWGLAGLNSCPVKEANQSTLENFLERLKTIMREKYSKCSS
effect on apoptosis in LPS-stimulated monocytes [12]: can enhance apoptosis
